Reference: patent US8551999B2, “Heterocyclic compound and pharmaceutical composition thereof” (Otsuka Pharmaceutical Co., Ltd., priority 2007, dated 2013)

SMILES | melting point
Br.COc1ccc(CN2CCN(C(=O)c3cc4cc(Oc5ccc(NC(=O)c6cc7cc(Br)ccc7[nH]6)cn5)ccc4n3C)CC2)cc1 [Example 228, 5-Bromo-1H-indole-2-carboxylic acid (6-{2-[4-(4-methoxybenzyl)-piperazine-1-carbonyl]-1-methyl-1H-indol-5-yloxy}pyridin-3-yl)-amide hydrobromide] | 263 to 265 °C
COc1ccc(CN2CCN(C(=O)c3cc4cc(Oc5ccc(N(C)C(=O)c6cc7cc(Br)ccc7[nH]6)cn5)ccc4n3C)CC2)cc1.O=C(O)/C=C\C(=O)O [Example 229, 5-Bromo-1H-indole-2-carboxylic acid (6-{2-[4-(4-methoxybenzyl)-piperazine-1-carbonyl]-1-methyl-1H-indol-5-yloxy}pyridin-3-yl)-methylamide maleate] | 205 to 207 °C
Br.Br.COc1ccc(CN2CCN(C(=O)c3cc4cc(Oc5ccc(NC(=O)c6ccc(C(F)(F)F)cn6)cn5)ccc4n3C)CC2)cc1 [Example 230, 5-Trifluoromethylpyridine-2-carboxylic acid (6-{2-[4-(4-methoxy-benzyl)piperazine-1-carbonyl]-1-methyl-1H-indol-5-yloxy}pyridin-3-yl)amide dihydrobromide] | 241 to 243 °C
Br.COc1ccc(CN2CCN(C(=O)c3cc4cc(Oc5ccc(NC(=O)c6ccc(C(F)(F)F)cc6Cl)cn5)ccc4n3C)CC2)cc1 [Example 231, 2-Chloro-N-(6-{2-[4-(4-methoxybenzyl)piperazine-1-carbonyl]-1-methyl-1H-indol-5-yloxy}pyridin-3-yl)-4-trifluoromethylbenzamide hydrobromide] | 239 to 241 °C
COc1ccc(CNC2CCN(C(=O)c3cc4cc(Oc5ccc(NC(=O)c6ccc(C(F)(F)F)cc6)cn5)ccc4n3C)CC2)cc1 [Example 233, N-[6-(2-{4-[(4-Methoxyphenyl)methylamino]piperidine-1-carbonyl}-1-methyl-1H-indol-5-yloxy)pyridin-3-yl]-4-trifluoromethyl-benzamide] | 139 to 142 °C
CS(=O)(=O)O.CS(=O)(=O)O.Cc1c(Oc2ccc(NC(=O)c3ccc(C(F)(F)F)cc3)cn2)ccc2c1cc(C(=O)N1CCN(Cc3ccccn3)CC1)n2C [Example 234, N-{6-[1,4-Dimethyl-2-(4-pyridin-2-ylmethylpiperazine-1-carbonyl)-1H-indol-5-yloxy]pyridin-3-yl}-4-trifluoromethylbenzamide bismethanesulfonate] | 149 to 150 °C
COc1ccc(CN2CCN(C(=O)c3cc4c(C)c(Oc5ccc(NC(=O)c6ccc(C(F)(F)F)cc6)cn5)ccc4n3C)CC2)cc1 [Example 235, N-(6-{2-[4-(4-Methoxybenzyl)piperazine-1-carbonyl]-1,4-dimethyl-1H-indol-5-yloxy}pyridin-3-yl)-4-trifluoromethylbenzamide] | 219 to 221 °C
Cn1c(C(=O)N2CCN(Cc3ccccn3)CC2)cc2ccc(Oc3ccc(NC(=O)c4ccc(C(F)(F)F)cc4)cn3)cc21.O=C(O)C(=O)O.O=C(O)C(=O)O [Example 236, N-{6-[1-Methyl-2-(4-pyridin-2-ylmethylpiperazine-1-carbonyl)-1H-indol-6-yloxy]pyridin-3-yl}-4-trifluoromethylbenzamide dioxalate] | 176 to 178 °C
Cn1c(C(=O)N2CCN(C(=O)c3ccccn3)CC2)cc2cc(Oc3ccc(NC(=O)c4ccc(C(F)(F)F)cc4)cn3)ccc21 [Example 239, N-(6-{1-Methyl-2-[4-(pyridine-2-carbonyl)piperazine-1-carbonyl]-1H-indol-5-yloxy}pyridin-3-yl)-4-trifluoromethylbenzamide] | 162 to 164 °C
COc1ccc(C(=O)N2CCN(C(=O)c3cc4cc(Oc5ccc(NC(=O)c6ccc(C(F)(F)F)cc6)cn5)ccc4n3C)CC2)cc1 [Example 240, N-(6-{2-[4-(4-Methoxybenzoyl)piperazine-1-carbonyl]-1-methyl-1H-indol-5-yloxy}pyridin-3-yl)-4-trifluoromethylbenzamide] | 195 to 196 °C
COc1ccc(C(=O)N2CCN(C(=O)c3cc4cc(Oc5ccc(N(C)C(=O)c6ccc(C(F)(F)F)cc6)cn5)ccc4n3C)CC2)cc1 [Example 241, N-(6-{2-[4-(4-Methoxybenzoyl)piperazine-1-carbonyl]-1-methyl-1H-indol-5-yloxy}pyridin-3-yl)-N-methyl-4-trifluoromethylbenzamide] | 126 to 128 °C

The remaining lines, values ahead:

melting point | SMILES
135 to 137 °C | CN(C(=O)c1ccc(C(F)(F)F)cc1)c1ccc(Oc2ccc3c(c2)cc(C(=O)N2CCN(C(=O)c4ccc(C#N)cc4)CC2)n3C)nc1 [Example 242, N-(6-{2-[4-(4-Cyanobenzoyl)piperazine-1-carbonyl]-1-methyl-1H-indol-5-yloxy}pyridin-3-yl)-N-methyl-4-trifluoromethylbenzamide]
121 to 123 °C | Cn1c(C(=O)N2CCN(Cc3ccccn3)CC2)cc2cccc(Oc3ccc(NC(=O)c4ccc(C(F)(F)F)cc4)cn3)c21.O=C(O)C(=O)O.O=C(O)C(=O)O [Example 243, N-{6-[1-Methyl-2-(4-pyridin-2-ylmethylpiperazine-1-carbonyl)-1H-indol-7-yloxy]pyridin-3-yl}-4-trifluoromethylbenzamide dioxalate]
228 to 229 °C | Cn1c(C(=O)N2CCN(Cc3ccc(C#N)cc3)CC2)cc2cccc(Oc3ccc(NC(=O)c4ccc(C(F)(F)F)cc4)cn3)c21 [Example 245, N-(6-{2-[4-(4-Cyanobenzyl)piperazine-1-carbonyl]-1-methyl-1H-indol-7-yloxy}pyridin-3-yl)-4-trifluoromethylbenzamide]
186 to 189 °C | Br.Cn1c(C(=O)N2CCN(Cc3ccccn3)CC2)cc2c(Oc3ccc(NC(=O)c4ccc(C(F)(F)F)cc4)cn3)cccc21 [Example 246, N-{6-[1-Methyl-2-(4-pyridin-2-ylmethylpiperazine-1-carbonyl)-1H-indol-4-yloxy]pyridin-3-yl}-4-trifluoromethylbenzamide hydrobromide]
279 to 282 °C (dec.) | Br.Cn1c(C(=O)N2CCN(Cc3ccc(OC(F)(F)C(F)F)cc3)CC2)cc2ccc(Oc3ccc(NC(=O)c4ccc(C(F)(F)F)cc4)cn3)cc21 [Example 250, N-[6-(1-Methyl-2-{4-[4-(1,1,2,2-tetrafluoroethoxy)benzyl]-piperazine-1-carbonyl}-1H-indol-6-yloxy)pyridin-3-yl]-4-tri-fluoromethylbenzamide hydrobromide]
265 to 267 °C (dec.) | Br.CC(C)Oc1ccc(CN2CCN(C(=O)c3cc4ccc(Oc5ccc(NC(=O)c6ccc(OC(F)(F)F)cc6)cn5)cc4n3C)CC2)cc1 [Example 251, N-(6-{2-[4-(4-Isopropoxybenzyl)piperazine-1-carbonyl]-1-methyl-1H-indol-6-yloxy}pyridin-3-yl)-4-trifluoromethoxybenzamide hydrobromide]
249 to 253.7 °C | Br.Cn1c(C(=O)N2CCN(Cc3ccc(OC(F)F)cc3)CC2)cc2ccc(Oc3ccc(NC(=O)c4ccc(Cl)c(Cl)c4)cn3)cc21 [Example 254, 3,4-Dichloro-N-(6-{2-[4-(4-difluoromethoxybenzyl)piperazine-1-carbonyl]-1-methyl-1H-indol-6-yloxy}pyridin-3-yl)benzamide hydrobromide]
239.7 to 243.5 °C | Br.CC(C)Oc1ccc(CN2CCN(C(=O)c3cc4ccc(Oc5ccc(NC(=O)c6ccc(Cl)c(Cl)c6)cn5)cc4n3C)CC2)cc1 [Example 255, 3,4-Dichloro-N-(6-{2-[4-(4-isopropoxybenzyl)piperazine-1-carbonyl]-1-methyl-1H-indol-6-yloxy}pyridin-3-yl)benzamide hydrobromide]
239.2 to 240.4 °C | Br.CCCOc1ccc(CN2CCN(C(=O)c3cc4ccc(Oc5ccc(NC(=O)c6ccc(Cl)c(Cl)c6)cn5)cc4n3C)CC2)cc1 [Example 256, 3,4-Dichloro-N-(6-{1-methyl-2-[4-(4-propoxybenzyl)piperazine-1-carbonyl]-1H-indol-6-yloxy}pyridin-3-yl)benzamide hydrobromide]
241.3 to 243.9 °C | Br.Cn1c(C(=O)N2CCN(Cc3ccc4c(c3)OCO4)CC2)cc2ccc(Oc3ccc(NC(=O)c4ccc(Cl)c(Cl)c4)cn3)cc21 [Example 257, N-{6-[2-(4-Benzo[1,3]dioxol-5-ylmethylpiperazine-1-carbonyl)-1-methyl-1H-indol-6-yloxy]pyridin-3-yl}-3,4-dichlorobenzamide hydrobromide]
234.6 to 237.2 °C | Br.COc1ccc(CN2CCN(C(=O)c3cc4ccc(Oc5ccc(NC(=O)c6ccc(Cl)c(Cl)c6)cn5)cc4n3C)CC2)cc1 [Example 258, 3,4-Dichloro-N-(6-{2-[4-(4-methoxybenzyl)piperazine-1-carbonyl]-1-methyl-1H-indol-6-yloxy}pyridin-3-yl)benzamide hydrobromide]
243.6 to 247.7 °C | Br.COCc1ccc(CN2CCN(C(=O)c3cc4ccc(Oc5ccc(NC(=O)c6ccc(Cl)c(Cl)c6)cn5)cc4n3C)CC2)cc1 [Example 259, 3,4-Dichloro-N-(6-{2-[4-(4-methoxymethylbenzyl)piperazine-1-carbonyl]-1-methyl-1H-indol-6-yloxy}pyridin-3-yl)benzamide hydrobromide]
255.8 to 257.4 °C | Br.CC(C)Cc1ccc(CN2CCN(C(=O)c3cc4ccc(Oc5ccc(NC(=O)c6ccc(Cl)c(Cl)c6)cn5)cc4n3C)CC2)cc1 [Example 260, 3,4-Dichloro-N-(6-{2-[4-(4-isobutylbenzyl)piperazine-1-carbonyl]-1-methyl-1H-indol-6-yloxy}pyridin-3-yl)benzamide hydrobromide]
259.4 to 260.7 °C | Br.Cn1c(C(=O)N2CCN(Cc3ccc(C(F)(F)F)cc3)CC2)cc2ccc(Oc3ccc(NC(=O)c4ccc(Cl)c(Cl)c4)cn3)cc21 [Example 262, 3,4-Dichloro-N-(6-{1-methyl-2-[4-(4-trifluoromethylbenzyl)-piperazine-1-carbonyl]-1H-indol-6-yloxy}pyridin-3-yl)benzamide hydrobromide]
263.9 to 267.4 °C | Br.Cn1c(C(=O)N2CCN(Cc3ccc(C#N)cc3)CC2)cc2ccc(Oc3ccc(NC(=O)c4ccc(Cl)c(Cl)c4)cn3)cc21 [Example 263, 3,4-Dichloro-N-(6-{2-[4-(4-cyanobenzyl)piperazine-1-carbonyl]-1-methyl-1H-indol-6-yloxy}pyridin-3-yl)benzamide hydrobromide]
